{"source": "paper PMC9170034", "about": "(Proceedings of the National Academy of Sciences of the …, 2022)", "key": {"OXA-10 [1]": {"target": "T1, OXA-10 (Pseudomonas aeruginosa, UniProt P14489)", "T1 construct": "His tag (N); made in house", "T1 sequence (P14489 20-266)": "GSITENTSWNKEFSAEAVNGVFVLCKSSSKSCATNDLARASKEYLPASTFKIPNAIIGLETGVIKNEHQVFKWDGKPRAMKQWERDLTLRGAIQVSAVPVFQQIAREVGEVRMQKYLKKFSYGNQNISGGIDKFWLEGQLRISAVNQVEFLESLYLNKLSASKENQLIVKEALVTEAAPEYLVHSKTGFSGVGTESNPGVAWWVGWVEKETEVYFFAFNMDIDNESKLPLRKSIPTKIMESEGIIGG", "experiment": "IC50/pIC50 determination with fluorescent reporter substrate FC-5 after pre-incubation", "type": "biochemical", "conditions": "Table S1, read-out: pIC50 at pH 7.5, OXA-10 (converted)", "procedure": "Kinetic analyses were performed (at least in triplicate) using either BMG LABTECH PHERAstar or CLARIOstar plate readers. Unless stated otherwise, reactions were in 50 mM phosphate buffer, pH 7.5, containing 0.01% (vol/vol) aqueous Triton X-100, and, in the case of OXA-10, 10 mM sodium bicarbonate. […] Nonlinear regression analysis was performed with Prism 5 (GraphPad Software).\nIC50s were determined as reported ([35]). […] The apparent inhibitory constant Kiapp and the second-order rate constant kinact/K (or k2/K) were determined using reported methods ([60]). SBLs were reacted with the reporter substrate in the presence of varied inhibitor concentrations. Reactions were initiated by SBL addition and immediately monitored for 60 to 120 s (until they plateaued). […] P=Vst+(V0−VS)(1−e^−kobst)/kobs+P0."}, "OXA-10 [2]": {"target": "T1, OXA-10", "experiment": "Kiapp and kinact/K determination in competition with FC-5", "type": "biochemical", "conditions": "OXA-10 (50 nM), FC-5 (5 µM); pH 7.5; 10 mM NaHCO3; read-out: Kiapp, OXA-10", "procedure": "Kinetic analyses were performed (at least in triplicate) using either BMG LABTECH PHERAstar or CLARIOstar plate readers. Unless stated otherwise, reactions were in 50 mM phosphate buffer, pH 7.5, containing 0.01% (vol/vol) aqueous Triton X-100, and, in the case of OXA-10, 10 mM sodium bicarbonate. Assays were performed in competition with either the fluorescent reporter substrate FC-5 ([35]), using black-walled microplates (Greiner Bio-One μCLEAR, PS, F-bottom, black), and measuring fluorescence intensity (ʎex = 380 nm and ʎem = 460 nm), or with nitrocefin (NCF), using ultraviolet transparent plates (Greiner Bio-One UV-Star, COC, F-bottom, clear) and measuring absorbance (ʎAbs = 486 nm, using path-length correction). Nonlinear regression analysis was performed with Prism 5 (GraphPad Software).\nIC50s were determined as reported ([35]). TEM-116 (1 nM), AmpCEC (500 pM), or OXA-10 (250 pM) were incubated with varied inhibitor concentrations at room temperature (r.t.) for the indicated time then assayed using 5 µM FC-5. The apparent inhibitory constant Kiapp and the second-order rate constant kinact/K (or k2/K) were determined using reported methods ([60]). SBLs were reacted with the reporter substrate in the presence of varied inhibitor concentrations. Reactions were initiated by SBL addition and immediately monitored for 60 to 120 s (until they plateaued). […]"}, "TEM-116": {"target": "TEM-116 (Escherichia coli, UniProt P62593, A182V/V82I)", "experiment": "SPE-MS study of prolonged reaction of SBL with penam sulfones", "conditions": "prolonged incubation (8 h) with 100 equiv.", "procedure": "Mass spectra were acquired in the positive ion mode using an integrated autosampler/SPE RapidFire365 system (Agilent Technologies) coupled to an Agilent 6550 Accurate Mass QTOF spectrometer. After the indicated time, 50 μL of the solution was loaded onto a C4 SPE cartridge (Agilent Technologies), then washed with buffer A (100% [vol/vol] water, 0.1% [vol/vol] formic acid), then eluted into the mass spectrometer in buffer B (15% [vol/vol] water, 85% [vol/vol] acetonitrile, 0.1% [vol/vol] formic acid). The cartridge was reequilibrated in buffer A in between samples. Data were analyzed using MassHunter Qualitative Analysis software V.7 (Agilent Technologies) using the maximum entropy deconvolution algorithm."}, "TEM-26": {"tested_on": "TEM-26", "set-up": "method as in earlier work", "conditions": "periplasmic extracts; nitrocefin; 5 min pre-incubation; ref 2 (Papp-Wallace et al., 2019); cited from earlier work"}, "TEM-30": {"tested_on": "TEM-30", "set-up": "method as in earlier work", "conditions": "periplasmic extracts; nitrocefin; 5 min pre-incubation; ref 2 (Papp-Wallace et al., 2019); cited from earlier work"}, "SHV-1": {"tested_on": "SHV-1", "conditions": "periplasmic extracts; nitrocefin; 5 min pre-incubation; ref 2 (Papp-Wallace et al., 2019); cited from earlier work"}, "SHV (R244S)": {"tested_on": "SHV (R244S)", "set-up": "method as in earlier work", "conditions": "periplasmic extracts; nitrocefin; 5 min pre-incubation; ref 2 (Papp-Wallace et al., 2019); cited from earlier work"}, "SHV-49": {"tested_on": "SHV-49", "conditions": "periplasmic extracts; nitrocefin; 5 min pre-incubation; ref 2 (Papp-Wallace et al., 2019); cited from earlier work"}, "CTX-M-14": {"tested_on": "CTX-M-14", "set-up": "method as in earlier work", "conditions": "periplasmic extracts; nitrocefin; 5 min pre-incubation; ref 2 (Papp-Wallace et al., 2019); cited from earlier work"}, "CTX-M-15": {"tested_on": "CTX-M-15", "set-up": "method as in earlier work", "conditions": "periplasmic extracts; nitrocefin; 5 min pre-incubation; ref 2 (Papp-Wallace et al., 2019); cited from earlier work"}, "KPC-2": {"tested_on": "KPC-2", "set-up": "method as in earlier work", "conditions": "periplasmic extracts; nitrocefin; 5 min pre-incubation; ref 2 (Papp-Wallace et al., 2019); cited from earlier work"}, "KPC-3": {"tested_on": "KPC-3", "set-up": "method as in earlier work", "conditions": "periplasmic extracts; nitrocefin; 5 min pre-incubation; ref 2 (Papp-Wallace et al., 2019); cited from earlier work"}, "AmpC E. cloacae": {"tested_on": "AmpC E. cloacae", "set-up": "method as in earlier work", "conditions": "periplasmic extracts; nitrocefin; 5 min pre-incubation; ref 2 (Papp-Wallace et al., 2019); cited from earlier work"}, "CMY-2": {"tested_on": "CMY-2", "set-up": "method as in earlier work", "conditions": "periplasmic extracts; nitrocefin; 5 min pre-incubation; ref 2 (Papp-Wallace et al., 2019); cited from earlier work"}, "OXA-1": {"tested_on": "OXA-1", "set-up": "method as in earlier work", "conditions": "periplasmic extracts; nitrocefin; 5 min pre-incubation; ref 2 (Papp-Wallace et al., 2019); cited from earlier work"}, "OXA-48": {"tested_on": "OXA-48", "set-up": "method as in earlier work", "conditions": "periplasmic extracts; nitrocefin; 5 min pre-incubation; ref 2 (Papp-Wallace et al., 2019); cited from earlier work"}, "OXA-51": {"tested_on": "OXA-51", "set-up": "method as in earlier work", "conditions": "periplasmic extracts; nitrocefin; 5 min pre-incubation; ref 2 (Papp-Wallace et al., 2019); cited from earlier work"}, "OXA-58": {"tested_on": "OXA-58", "set-up": "method as in earlier work", "conditions": "periplasmic extracts; nitrocefin; 5 min pre-incubation; ref 2 (Papp-Wallace et al., 2019); cited from earlier work"}}, "note": "Like-named read-outs stand apart in the source and are kept apart here.", "data": [{"molecule": "C[C@]1(Cn2ccnn2)[C@H](C(=O)O)N2C(=O)C[C@H]2S1(=O)=O", "note": "[tazobactam]", "values": [{"measurement": "IC50", "setting": "OXA-10 [1]; with 100 mM added NaHCO3, 0 min pre-incubation", "value": 3890, "unit": "nM"}, {"measurement": "IC50", "setting": "OXA-10 [1]; with 100 mM added NaHCO3, 10 min pre-incubation", "value": 1910, "unit": "nM"}, {"measurement": "IC50", "setting": "OXA-10 [1]; with 100 mM added NaHCO3, 30 min pre-incubation", "value": 851, "unit": "nM"}, {"measurement": "IC50", "setting": "OXA-10 [1]; with 100 mM added NaHCO3, 60 min pre-incubation", "value": 562, "unit": "nM"}, {"measurement": "IC50", "setting": "OXA-10 [1]; with 100 mM added NaHCO3, 360 min pre-incubation", "value": 204, "unit": "nM"}, {"measurement": "IC50", "setting": "OXA-10 [1]; without added NaHCO3, 0 min pre-incubation", "value": 5010, "unit": "nM"}, {"measurement": "IC50", "setting": "OXA-10 [1]; without added NaHCO3, 10 min pre-incubation", "value": 1480, "unit": "nM"}, {"measurement": "IC50", "setting": "OXA-10 [1]; without added NaHCO3, 30 min pre-incubation", "value": 891, "unit": "nM"}, {"measurement": "IC50", "setting": "OXA-10 [1]; without added NaHCO3, 60 min pre-incubation", "value": 457, "unit": "nM"}, {"measurement": "IC50", "setting": "OXA-10 [1]; without added NaHCO3, 360 min pre-incubation", "value": 234, "unit": "nM"}, {"measurement": "Ki", "setting": "OXA-10 [2]", "value": "469000 ± 80000", "unit": "nM"}, {"measurement": "−18-Da species, TEM-116", "setting": "TEM-116", "value": "not observed"}, {"measurement": "IC50", "setting": "TEM-26", "value": "23 ± 1", "unit": "nM"}, {"measurement": "IC50", "setting": "TEM-30", "value": "[…]"}, {"measurement": "IC50", "setting": "SHV-1", "value": "26 ± 3", "unit": "nM"}, {"measurement": "IC50", "setting": "SHV (R244S)", "value": "390 ± 40", "unit": "nM"}, {"measurement": "IC50", "setting": "SHV-49", "value": "730 ± 80", "unit": "nM"}, {"measurement": "IC50", "setting": "CTX-M-14", "value": "[…]"}, {"measurement": "IC50", "setting": "CTX-M-15", "value": "6 ± 1", "unit": "nM"}, {"measurement": "IC50", "setting": "KPC-2", "value": "3700 ± 400", "unit": "nM"}, {"measurement": "IC50", "setting": "KPC-3", "value": "4400 ± 500", "unit": "nM"}, {"measurement": "IC50", "setting": "AmpC E. cloacae", "value": "5100 ± 500", "unit": "nM"}, {"measurement": "IC50", "setting": "CMY-2", "value": "2500 ± 300", "unit": "nM"}, {"measurement": "IC50", "setting": "OXA-1", "value": "8600 ± 900", "unit": "nM"}, {"measurement": "IC50", "setting": "OXA-48", "value": "1500 ± 200", "unit": "nM"}, {"measurement": "IC50", "setting": "OXA-51", "value": "> 100000", "unit": "nM"}, {"measurement": "IC50", "setting": "OXA-58", "value": "26000 ± 3000", "unit": "nM"}]}]}
